In patent publication US20240238428A1 (priority 2021, published 2024):
Where two headings read alike, the source gives them in different places.

Experiments:
HIV = conditions: peptide without selenium, cited from earlier work
virus gp 120 and CD4 = virus gp 120 and CD4 (Human immunodeficiency virus type 1 group M subtype B, UniProt P04578); conditions: peptide without selenium; only observed at this relatively high concentration; cited from earlier work
PC-3 cells = type: cell-based
DU-145 cells = type: cell-based
normal prostate cells = type: cell-based
normal human lung cells = conditions: up to 10 μM

Se-TYICEVEDQKEE
inactivation of HIV (HIV-1; 10 μg/ml): over 95% | concentration for 50% inactivation of HIV (HIV-1; 0.25 mM reduced glutathione): 1 microgram per ml | inhibition of cell infection (HIV-1; 0.006 micrograms per ml): over 50% | inhibition of cell infection (HIV-1; 0.5 micrograms per ml): over 99% | inactivation of HIV virus (HIV-1; 10 micrograms per ml, 0.25 mM reduced glutathione, within 1 hour): 95% | concentration for 50% (half maximal) inactivation of HIV (HIV-1; 1 hour pre-incubation, 0.25 mM reduced glutathione): 1 µg/mL | concentration of peptide that binds and inactivates HIV in one hour (HIV-1; one hour): 0.5 µg/mL | IC50 (HIV-1; read-out: concentration for half maximal inactivation of virus, peptide in the medium during infection, after 100-fold dilution in culture medium): 5.9 nM | IC50 (HIV-1; read-out: concentration for half maximal inactivation of virus, peptide during the 1 hour pre-incubation): 590 nM | inactivation of HIV-1 (ability of infected cells to produce virus) (HIV-1; seleno-peptide 0.1 ug/ml, one hour with glutathione 250 uM): 95% | increase in effectiveness at preventing infection by coupling selenium to the 12-mer peptide (HIV-1; versus peptide without selenium): 50 fold

TYICEVEDQKEE [gp120-binding 12-mer peptide]
effect of peptide without selenium on HIV (HIV-1; even at 100 μg/ml, the highest concentration tested): no significant effect | effect of control peptide solution on HIV-1 inactivation (HIV-1; peptide without selenium): no effect | peptide concentration with 50% infection blocking activity (HIV; corresponds to 32 μM): about 50 μg/ml | IC50 (HIV; read-out: peptide concentration with 50% infection blocking activity): 32000 nM | concentration at which an effect on the gp 120-CD4 interaction was observed (virus gp 120 and CD4): 457 micrograms per ml

selenium adduct of dihydrotesterone [SeDHT]
concentration that kills the cells (PC-3 cells): less than 10 micromolar | concentration that kills the cells (DU-145 cells): less than 10 micromolar | sensitivity of cells (normal prostate cells): sensitive | sensitivity of cells (colorectal cancer cells): Only the prostate cells are sensitive | sensitivity of cells (normal human lung cells): Only the prostate cells are sensitive
